From patent US9421249B2, “Methods to activate or block the HLA-E/Qa-1 restricted CD8+ T cell regulatory pathway to treat immunological disease” (THE TRUSTEES OF COLUMBIA UNIVERSITY IN THE CITY OF NEW YORK, priority 2007, dated 2016)
Where no end group is shown, it is not given here.

Experiments:
[1] = system: T1D in NOD mice; assay: Peptide vaccination in spontaneous T1D model; details: NOD mice immunized subcutaneously with antigen emulsified with IFA; compared with IFA alone
Procedure: In the standard protocol used throughout this study female 8-10 weeks old B10PL or 3-4 weeks old NOD mice were immunized subcutaneously with 1-9Nac MBP or p277 emulsified with IFA at 100 uM/mouse as described. EAE was induced at least one week after peptide vaccination. CD8+ T cells were purified from spleens and draining lymph nodes of peptide vaccination protected EAE/B10PL mice or T1D/NOD mice by positive selection with CD8 MACS magnetic beads (Miltenyibiotec, Inc. Auburn Calif.). The purity of CD8+ T cells is routinely >95%.
The effect of peptide vaccination or adoptive transfer of CD8+ T cells was evaluated by assessing the clinical EAE (181) or T1D in the recipient mice.

[2] = system: EAE in B10PL mice; assay: Peptide vaccination in EAE model; assay type: in vivo; details: B10PL mice immunized subcutaneously with antigen emulsified with IFA; compared with IFA alone
Description: B10PL mice were vaccinated with either 1-9NacMBP, a MHC Class II biding peptide derived from MBP or p277, a MHC Class II biding peptide derived from Hsp60. In this regard, it is well known that 1-9NacMBP is a pathogenic peptide in B10PL mice and p277 may be involved in the pathogenesis of T1D in certain mouse strains (174) but irrelevant to EAE.

[3] = system: Qa-1; assay: Qa-1 binding assay (stabilization of Qa-1a surface expression on 3F4 transfectants, FACS); set-up: species or system murine; details: 3F4 cells, peptide 50 μM, 26° C., approximately 18 hours
Procedure: The capacity of the peptides to bind to Qa-1 was first assessed by their ability to stabilize Qa-1 surface expression on 3F4 cells. The 3F4 cells were incubated at 26° C. for approximately 18 hours with Hsp60sp or Qdm peptides and a Qa-1 non-binding peptide HEL 74-96 served as control peptide (12, 14 and 17). As shown by FIG. 6, the binding of exogenous peptide at 26° C. causes a shift in the intensity of Qa-1a surface staining analyzed by FACS.
Selected Qa-1a-PcDNA3.1 positive transfectants detected by RT-PCR were assayed for their Qa-1 surface expression after loading with known Qa-1 binding peptides. In brief, Qa-1a transfectants were incubated at 26° C. for approximately 18 hours with Hsp60sp or Qdm peptides (10, 12 and 17). The surface expression of Qa-1a was assessed by staining with anti-Qa-1a sera followed by Phycoerythorine (PE)-goat anti-mouse Ig, analyzed on a FACScan flow cytometer and CellQuest™ software (Becton Dickinson, Mountain View, Calif.)(1). All peptides were used at 50 μM unless specifically indicated.

[4] = system: Qa-1 restricted CD8+ T cells; assay: CD8+ T cell inhibition assay, CD8+ T cells from peptide vaccination protected mice; assay type: cell-based
Description: To test this hypothesis, a Qa-1a expressing cell 3F4 was used as peptide-presenting cell to determine the specificity of the CD8+ T cells isolated from either 1-9Nac MBP or p277 vaccination protected B10PL and NOD mice.
Physiological target T cells, the intermediate avidity 1-9Nac MBP specific clone 1AE10 from B10PL mice and p277 specific clone 15A6 from NOD mice served as positive controls, and low avidity MBP specific clone 4D10 and p277 specific clone 1304 served as negative control to assess the function and the specificity of the CD8+ T cells. It is noted that “quantitative” but not “qualitative” differences between the Qa-1/Hsp60sp versus Qa-1/Qdm is a function of avidity of T cell activation which determines their susceptibility to the down-regulation by the CD8+ T.
3F4 cells were passively loaded with peptides overnight at 26° C. Equal number of unlabeled 3F4 cells loaded with peptides and CFSE labeled 3F4 cells that are not loaded with peptide were mixed and a graded number of CD8+ T cells were added to the targets. […] 4 days later, the cell mixtures were stained with anti-mouse CD8-PE mAb to distinguish CD8+ T cells from target cells and the CD8+ T cells were gated out during the analysis when the ratio between two types of targets were calculated. […]

[5] = system: Qa-1; assay: Peptide competition assay (functional NK assay); assay type: cell-based, murine; details: Qdm 20 μM; competing peptide 50, 100, 200 μM; 18 hrs at 26° C.; E/T ratio 2:1
Procedure: The ability of the Hsp60sp to compete with Qdm for binding to Qa-1 was further tested in a functional NK assay.
Competing peptides (Hsp60sp or control non-Qa-1 binding peptide) at 50, 100, 200 μM were added to the 3F4 cells, together with 20 μM Qdm for 18 hrs at 26° C. (14). Equal numbers of CFSE labeled LCL cells were mixed with 3F4 cells and NK cells were then added into the mixture of peptide loaded 3F4 cells and LCL cells. The percent NK killing of 3F4 cells was evaluated.

[6] = system: Qa-1 dependent CD8+ T cells; assay: CD8+ T cell inhibition assay, CD8+ T cells from EAE recovered mice; assay type: cell-based; details: CD8+ T cells isolated from EAE recovered B10PL mice
Description: It was next tested if Qa-1/Hsp60sp is the target for the regulatory CD8+ T cells. […] The Qa-1 expressing 3F4 cell was used as the Qa-1 peptide presenting cell to test if Hsp60sp is preferentially recognized by the regulatory CD8+ T cells in a CD8+ T cell inhibition assay. The 1-9NacMBP (myelin basic protein) specific, intermediate avidity clone 1AE10, capable of inducing EAE in vivo (8, 19) served as a positive control, and a non-encephalitogenic, low avidity clone 4D10 as well as 3F4 loaded with control non-Qa-1 binding peptide or Qdm served as negative controls. […] Thus, Hsp60sp is, indeed, a specific target recognized by the CD8+ T cells, when presented by Qa-1.
3F4 cells were passively loaded with peptides overnight at 26° C. Equal number of unlabeled 3F4 cells loaded with peptides and CFSE labeled 3F4 cells that are not loaded with peptide were mixed and a graded number of CD8+ T cells were added to the targets. […] The ratio between peptide-loaded (non-CFSE-labeled) 3F4 cells and non-loaded (CFSE labeled) 3F4 cells in the presence of CD8+ T cells was determined as % of specific inhibition: {[the ratio of loaded to unloaded 3F4 cells in control cultures (without CD8+ T cells)−the ratio in experimental cultures (with CD8+ T cells)]/the ratio in control cultures}×100% (1).

[7] = target: CD94/NKG2A (Homo sapiens, UniProt P26715+Q13241); details: cited from earlier work
[8] = system: CD94/NKG2A; assay: NK assay with peptide-loaded 3F4 cells; assay type: cell-based; details: 3F4 cells loaded with peptide at 26° C. overnight; mouse NK cells 2 hrs
Description: Since a significant number of murine CD8+ T cells express CD94/NKG2A, it was investigated whether Qa-1/Hsp60sp generated in activated murine T cells is capable of interacting with CD94/NKG2A in a functional NK assay. […] This is also compatible with the notion that two types of Qa-1/HLA-E binding peptides could be distinguished by their ability of interact with CD94/NKG2A in both humans (14) and mice.
NK cell lines are routinely established from B10PL mice (24). Unlabeled 3F4 cells were loaded with test peptides at 26° C. overnight and mixed with an equal number of CFSE labeled human EBV transformed LCL cells which are not susceptible to the killing by mouse NK cells. Graded numbers of mouse NK cells were added to the mixture of 3F4 and LCL cells and further incubated at 37° C. for 2 hrs. 3F4 cells, which were not loaded with peptides or loaded with non-Qa-1 binding peptides served as controls. The cell mixtures were then stained with anti mouse H-2^U mAb 3-8-3P-PE to distinguish NK cells from target cells. The change in the ratio of 3F4 to LCL cells in the presence or absence of NK cells in each group detected by FACS (1) reflects the specific NK killing: % specific killing={[the killing ratio in control wells (without NK)−the killing ratio in experimental wells (with NK)]/the killing ratio of control wells}×100%.

[9] = system: Qa-1/HLA-E; details: cited from earlier work
[10] = system: HLA-E restricted CD8+ T cells; assay: CD8+ T cell inhibition CFSE assay on HLA-E transfectants loaded with peptide; assay type: cell-based, human
Description: Data obtained in human studies support the concept established in the murine studies.
To test if HLA-E restricted CD8+ T cells also play a similar role in the control of human T1D, the function of CD8+ T cells in freshly isolated PBMC from T1D patients was first tested. For this purpose two assays were employed. The first is a standard T cell proliferation assay measuring self non-self discrimination, comparing the overall immune responses of human PBMC to self versus foreign antigens in the presence or absence of CD8+ T cells. Thus, intact PBMC populations or purified CD4+ T cells were cultured with varying doses of the self-antigen GAD or foreign antigen TT. Comparing PBMC with purified CD4+ T cells could not alone definitively pinpoint the function of the CD8+ T cells contained in the PBMC. […] This is the case in testing the function of CD8+ T cells in T1D patients combined with the CD8+ T cell inhibition CFSE assay, which can be applied as a relative simple and feasible clinical test. […] We then proceeded to further identify the specificity of the CD8+ T cells. Thus, purified CD8+ T cells from T1D patients were tested on HLA-E transfectant H3B2 cells loaded with Hsp60sp. H3B2 loaded with B7sp or non-HLA-E binding peptide served as controls.
CD8+ T cells were in vitro primed with DCs loaded with either Hsp60sp [CD8(H)], or B7sp [CD8(B)] and tested for their specificity and the function of self-nonself discrimination using the two assays described above. […] To verify the restored function of the CD8+ T cells, these CD8+ T cell lines were also tested in a CFSE assay on HLA-E transfectant H3B2 cells loaded with Hsp60sp. A CD8(B) line from each patient served as control. […] This phenomenon has been observed in about 60% of the 10 total T1D patients tested to date.

CD94/NKG2A (Homo sapiens, UniProt P26715+Q13241), sequence (Q13241 whole entry): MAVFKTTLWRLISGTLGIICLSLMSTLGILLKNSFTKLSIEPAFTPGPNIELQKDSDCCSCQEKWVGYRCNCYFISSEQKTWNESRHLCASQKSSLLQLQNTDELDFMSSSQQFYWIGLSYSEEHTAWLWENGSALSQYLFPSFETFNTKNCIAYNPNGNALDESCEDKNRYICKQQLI
CD94/NKG2A (Homo sapiens, UniProt P26715+Q13241), sequence (P26715 whole entry): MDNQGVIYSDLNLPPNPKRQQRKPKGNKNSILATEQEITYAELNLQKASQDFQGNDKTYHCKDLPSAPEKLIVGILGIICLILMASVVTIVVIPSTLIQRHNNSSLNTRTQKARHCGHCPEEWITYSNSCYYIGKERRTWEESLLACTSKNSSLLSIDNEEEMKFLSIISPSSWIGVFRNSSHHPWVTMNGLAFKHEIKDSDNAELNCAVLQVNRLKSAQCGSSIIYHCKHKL

Substance: AcASGLAPSGA (Ac-ASGLAPSGA; listed as Mus musculus) [1-9Nac MBP]
- Protection from spontaneously developed T1D [1]: equally protected NOD mice from spontaneously developed T1D
- Protection from subsequently induced EAE [2]: equally effectively protected from EAE

Substance: HEL: conventional foreign antigen Hen Egg Lysozyme
- Protection from spontaneously developed T1D [1]: CD8+ T cell dependent protection from either EAE or T1D
- Protection from subsequently induced EAE [2]: CD8+ T cell dependent protection from either EAE or T1D

Substance: VLGGGVALLRVIPALDSLTPANED [p277]
- Protection from spontaneously developed T1D [1]: completely protected NOD mice from spontaneously developed T1D up to 35 week's of age
- Protection from subsequently induced EAE [2]: equally effectively protected from EAE

Substance: QMRPVSRAL (listed as Mus musculus) [Hsp60sp]
- Binding to Qa-1 (shift in intensity of Qa-1a surface staining) [3]: could bind to Qa-1
- Down-regulation of peptide-sensitized 3F4 cells by CD8+ T cells ([4]; CD8+ T cells from 1-9Nac MBP or p277 vaccination protected B10PL mice): efficiently down-regulated
- Down-regulation of peptide-sensitized 3F4 cells by CD8+ T cells ([4]; CD8+ T cells from p277 or 1-9Nac MBP vaccination protected NOD mice): efficiently down-regulated
- Competition with Qdm for binding to Qa-1 (abrogation of Qdm protection from NK killing) [5]: abrogated the protection of NK killing of 3F4 by Qdm in a dose dependent manner
- Susceptibility of peptide-loaded 3F4 cells to down-regulation by CD8+ T cells [6]: susceptible to the down-regulation by the CD8+ T cells
- Interaction of HLA-E/peptide complex with CD94/NKG2A [7]: does not interact with CD94/NKG2A
- Inhibition of NK killing of peptide-loaded 3F4 cells [8]: does not inhibit NK killing
- Competition with B7sp for occupancy of HLA-E ([9]; human studies): capable of competing with B7sp peptide
- Inhibition of H3B2 cells loaded with peptide by CD8(H) ([10]; CD8(H) line from a T1D patient, after in vitro priming with DCs loaded with Hsp60sp): specifically inhibited
- Inhibition of H3B2 cells loaded with peptide by CD8+ T cells ([10]; CD8+ T cells from freshly isolated PBMC of T1D patients (11 total patients tested)): failed to specifically inhibit
- Inhibition of H3B2 cells loaded with peptide by CD8+ T cells ([10]; CD8+ T cells from normal controls): specifically inhibited
- Inhibition of HLA-E transfected clones loaded with peptide by CD8(H) ([10]; CD8+ T cells primed in vitro with Hsp60sp loaded dendritic cells): specifically inhibit

Substance: AMAPRTLLL [Qdm]
- Binding to Qa-1 (shift in intensity of Qa-1a surface staining) [3]: could bind to Qa-1
- Inhibition of NK killing of peptide-loaded 3F4 cells [8]: resistant to the NK killing
- Binding to Qa-1 [9]: binds with high affinity
